One assay has as its target MGO-AGEs (Bos taurus, UniProt P02769). In words: Breaking of MGO-induced advanced glycation end products (TNBSA free amine). It is filed as biochemical. The procedure: Bovine serum albumin (BSA) was stored at 37° C. for 7 days in mixture with methylglyoxal (MGO) and sodium azide) to prepare AGEs. The AGEs derived from MGO are referred to as “MGO-AGEs”. MGO-AGEs with a concentration of 1 mg/ml were treated for 24 hours with various concentrations (0.1, 0.2, and 0.4 mM) of SPA1413. As a positive control, aminoguanidine (AG), known as an AGE inhibitor, was used. MGO-AGEs were reacted with 2,4,6-trinitrobenzene sulfonic acid (TNBSA) and 4% sodium bicarbonate, followed by adding 10% sodium dodecyl sulfate and 1 N HCl to terminate the reaction. Absorbance was read at 335 nm accounting for free amines, which resulted from the breaking degradation of AGEs, in a microplate to evaluate the efficacy of degrading AGEs.

The test system of assay [1] is LPS-treated primary microglia. The experiment in a line: Cell viability of LPS-treated primary microglia. The settings on record: FIG. 9b. It is filed as cell-based, ICR mice.
The subject of the next assay is N2a cells. The experiment in a line: Neurite outgrowth in N2a cells (Incucyte). It is filed as cell-based, mouse. The conditions noted are these: 5 µM, FIGS. 14a and 14b. The procedure: N2a cells were aliquoted at a density of 1x10^4 cells/well into 24-well plates, treated with daidzein, o-desmethylangolensin, S-equal, SPA1413 and SPA1426 at 5 µM, and evaluated for neurite outgrowth by the real-time cell monitoring system InCucyte. The cells were photographed every 2 hours, and the neurites were counted through Incucyte software.

In the next assay the target is T1, Aβ42 (Homo sapiens, UniProt P05067).
T1 construct: 1,1,1,3,3,3-hexafluoro-2-propanol-treated Aβ42 (# A-1163-1, rPeptide); purchased rPeptide A-1163-1
The experiment in a line: Multimer detection system (MDS) assay of Aβ42 oligomerization. Format: biochemical. The conditions noted are these: compounds 100 µM, Aβ42 200 µg/mL; compared to negative control and Daidzein or Equol; FIG. 2. The procedure: The drugs selected on the basis of the ThT assay results were evaluated for inhibitory activity against the oligomerization of Aβ42, using a multimer detection system (MDS) assay. Immediately after being dissolved in 1% NH4OH (# 221228, Sigma-Aldrich), 1,1,1,3,3,3-hexafluoro-2-propanol-treated Aβ42 (# A-1163-1, rPeptide) was diluted in 500 µL of phosphate-buffered saline (PBS; pH 7.5), aliquoted into 1.5-mL tubes, and stored at -80° C. until use. Aβ42 and the compounds were mixed with PBS to make final concentrations of 200 µg/mL and 100 µM, respectively, and incubated at room temperature. Aggregation of Aβ42 was terminated by maintaining at -80° C.
After the reaction between each drug and Aβ42, the oligomeric form of Aβ42 was measured for each time to measure inhibitory effects on the oligomer.

For assay [2], the system named is nitric oxide production in LPS-treated primary microglia. The experiment in a line: Nitric oxide production (Griess) in LPS-treated primary microglia. Format: cell-based, ICR mice. The settings on record: FIG. 9a. The procedure: BV2 cells were seeded at a density of 4 x 10^5 cells/well into 96-well plates, and primary microglial cells isolated from the brain of […] ICR mice were seeded at a density of 4 x 10^5 cells/well into 24-well plates.
After stabilization for 24 hours, the cells were treated with various concentrations (1 and 5 µM) of daidzein, o-desmethylangolensin, S-equal, SPA1413, and SPA1426 for 30 minutes and then with LPS (100 ng/ml) for 24 hours at 37° C. The culture media were collected and measured for NO production using a Griess reagent solution (1% sulfanilamide and 0.1% N-1-naphthyl ethylenediamine dihydrochloride in 5% phosphoric acid). Briefly, a total of 50 µL of the supernatant was transferred to new 96-well plates and mixed with the same volume of the Griess reagent solution, followed by measuring OD at 570 nm. In addition, the cell viability was assayed in the same manner as in Experimental Example 2.
In general terms: The Griess reaction detects nitrite, a stable product of nitric oxide.

Another assay concerns LPS-treated BV2 cells. In words: Cell viability of LPS-treated BV2 cells. It is filed as cell-based, mouse. The conditions noted are these: FIG. 8b. The procedure:
Mouse-derived microglia (BV2 cells) purchased from the Korean Cell Line Bank were seeded at a density of 4x10^5 cells/well into 96-well plates, each well containing DMEM (Dulbecco’s Modified Eagle’s Media) supplemented with 10% FBS and 1% antibiotics, and stabilized by incubation for 24 hours. Thereafter, the cells were treated for 24 hours with various concentrations (0.5, 1, and 5 µM) of daidzein, o-desmethylangolensin (O-DMA), S-equal, SPA1413, and SPA1426. After removal of the medium, the cells were treated 0.5 mg/ml 3-(4,5-dimethylthiazol-2-yl)-2,5-diphenyltetrazolium bromide (MTT) solution 1 hour. The reduced formazan was dissolved in 150 µl of dimethyl sulfoxide (DMSO) and absorbance was read at 570 nm in a microspectrophotometer to determine cell viability. Cell viability of the cells treated with each sample was determined relative to that of the untreated normal control (Control), which was set to be 100%, and the results are depicted in FIGS. 3 and 4 (upper).
After stabilization for 24 hours, the cells were treated with various concentrations (1 and 5 µM) of daidzein, o-desmethylangolensin, S-equal, SPA1413, and SPA1426 for 30 minutes and then with LPS (100 ng/ml) for 24 hours at 37° C. […]

Another assay deals with p38. In words: p38 protein expression (western blot) in LPS-treated BV2 cells. The settings on record: 5 µM, compared to the LPS-treated group, FIG. 12b. It is filed as cell-based, mouse. The procedure: BV2 cells were aliquoted at a density of 1x10^6 cells/well into 60 mm dishes and stabilized for 24 hours. Thereafter, the cells were treated with 5 µM of S-equal, SPA1413, or SPA1426 for 30 minutes and then with LPS (100 ng/ml) for 24 hours at 37° C. After being cultured to reach 100% confluence, the cells were washed with PBS and lysed with a lysis buffer (PRO-PREP™ Protein Extraction Solution, Intron Biotechnology, Seongnam, Korea). With bovine serum albumin (BSA) serving as a standard, the protein contents of the lysate supernatants were measured by Bio-Rad Protein Assay (Bio-Rad, California, USA) to determine the total protein content in each sample. Afterwards, each of the samples was loaded in a protein amount of 30 µg on a 10-12% SDS-PAGE gel and run for electrophoresis. The electrophorized proteins were transferred to a PVDF membrane which was then blocked with 5% skim milk and incubated with antibodies to JNK or p38 (Cell Signaling Technologies, Massachusetts, USA). Detection was conducted with a ChemiDoc XRS+ imaging system (Bio-Rad, CA, USA).
In general terms: In western blotting, separated proteins are transferred to a membrane and probed.

MGO-AGEs, sequence (P02769 25-607): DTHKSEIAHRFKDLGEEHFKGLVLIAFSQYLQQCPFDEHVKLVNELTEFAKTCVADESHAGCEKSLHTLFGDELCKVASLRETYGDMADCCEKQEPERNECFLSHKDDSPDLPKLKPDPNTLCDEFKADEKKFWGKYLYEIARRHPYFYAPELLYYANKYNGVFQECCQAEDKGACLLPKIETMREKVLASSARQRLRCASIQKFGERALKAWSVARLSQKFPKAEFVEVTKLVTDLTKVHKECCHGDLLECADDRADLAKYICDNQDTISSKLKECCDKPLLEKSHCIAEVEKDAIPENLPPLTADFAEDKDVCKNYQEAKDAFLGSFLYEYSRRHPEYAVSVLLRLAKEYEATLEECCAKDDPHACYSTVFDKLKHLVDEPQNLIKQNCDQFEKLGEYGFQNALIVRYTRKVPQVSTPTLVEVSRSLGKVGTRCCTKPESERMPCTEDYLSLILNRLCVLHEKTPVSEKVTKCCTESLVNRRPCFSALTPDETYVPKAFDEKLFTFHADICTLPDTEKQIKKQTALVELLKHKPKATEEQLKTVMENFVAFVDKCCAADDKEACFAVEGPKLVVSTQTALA
T1 sequence (P05067 672-713 limits assumed): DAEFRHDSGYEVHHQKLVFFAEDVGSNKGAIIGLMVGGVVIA

Consider `Oc1ccc(C2=Cc3ccc(O)cc3OC2)cc1` [SPA1413, 3-(4-Hydroxyphenyl)-2H-chromen-7-ol], for which the “free amines from breaking of MGO-AGEs, compared to the negative control (MGO-AGEs)” value at MGO-AGEs (0.1, 0.2 and 0.4 mM, 24 hours, MGO-AGEs 1 mg/ml, FIG. 18) is “increased levels of free amines”. Besides, the “cell viability compared to the group treated with LPS” value (in assay [1]; in the assay with LPS-treated BV2 cells) was “increased” each time. In addition, the neurite outgrowth result in the assay on N2a cells is given as “significantly increased”. The “inhibition of Aβ42 oligomerization” value against Aβ42 is recorded as “exhibited inhibitory effects on Aβ42 oligomerization”. Further, in assay [2], the NO production result is listed as “decreased NO production in dose-dependent manners”. Further, the “expression level of P38 protein” value in the assay on p38 is given as “decreased”.
`CCCC(=O)Oc1ccc(C2=Cc3ccc(OC(=O)CCC)cc3OC2)cc1` [SPA1426, 4-(7-(butyryloxy)-2H-chromen-3-yl)phenyl butyrate]: the “free amines from breaking of MGO-AGEs, compared to SPA1413” value on MGO-AGEs (FIG. 19) was “higher levels of free amines”. The “cell viability compared to the group treated with LPS” value (in assay [1]; in the assay with LPS-treated BV2 cells) was “increased” each time. Besides, the neurite outgrowth entry with N2a cells was “significantly increased”. In addition, at Aβ42, the “inhibition of Aβ42 oligomerization” value was “exhibited inhibitory effects on Aβ42 oligomerization”. In addition, the NO production result in assay [2] is “decreased NO production in dose-dependent manners”. Besides, the “expression level of P38 protein” value in the assay with p38 is listed as “decreased”.

The values above are taken from patent US20230330059A1, “3-PHENYL-2H-CHROMENE DERIVATIVE AND PHARMACEUTICAL COMPOSITION FOR PREVENTING OR TREATING ALZHEIMER'S, CONTAINING SAME” (NEUROBIONET, INC., priority 2020, published 2023).
